{"source": "paper PMC5485613", "about": "“A novel TRPM8 agonist relieves dry eye discomfort” (BMC Ophthalmology, 2017)", "test_system": "volunteers", "experiment": "C3 eye drop instilled in volunteers, sensation scores", "format": "in vivo, human", "procedure": "Eye drops represent ~90% of formulations used for treatment of anterior eye disorders. […] Subjects were asked to rate discomfort, blurring, and coolness sensations, on a scale of 0 (no effect) to 5 (intense effect) at 5, 10, and 15 min after instillation. […] Cooling sensation scores were significant at 5 min (2.6 vs 0.2), but there were not much cooling at 10 (0.8 vs 0.2) or 15 min (0.2 vs 0.2). It appeared as if eye drops are a relatively inefficient method of C3 delivery because the drop splashes in a confined space and the time for the active ingredient to be retained on target receptors is short. Furthermore, the initial period of discomfort is not desirable. To determine if there were other TRPM8 targets on the orbit, we examined the mouse eye with a selective TRPM8-GFP reporter line."}
{"molecule": "CCCCCCCCCP(=O)(C(C)C)C(C)C", "note": "[C3, 1-diisopropylphosphorylnonane]", "values": [{"measurement": "blurring", "setting": "0.1 mg/mL eye drop, 5, 10 and 15 min", "result": "did not cause significant blurring"}, {"measurement": "Cooling sensation score (0-5)", "setting": "0.1 mg/mL eye drop, 5 min", "result": 2.6}, {"measurement": "Cooling sensation score (0-5)", "setting": "0.1 mg/mL eye drop, 10 min", "result": 0.8}, {"measurement": "Cooling sensation score (0-5)", "setting": "0.1 mg/mL eye drop, 15 min", "result": 0.2}, {"measurement": "duration of cooling after eye drop", "setting": "0.1 mg/mL eye drop, volume printed as 70 μL", "result": "≤ 10", "unit": "min"}, {"measurement": "discomfort", "setting": "0.1 mg/mL, 50 μL eye drop, 10 or 15 min", "result": "not at 10 or 15 min"}, {"measurement": "discomfort score (0-5)", "setting": "0.1 mg/mL, 50 μL eye drop, 5 min, n = 5", "result": 1.6}]}
